Key:
Format in all cases: in vivo
[1] = tested on: Surinam grass (Brachiaria decumbens); assay: Test B postemergence; conditions: 13 to 15 days
Method in brief: (§1)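 Visual injury scores, 0 = no effect to 100 = complete control, assigned against controls after 13 to 15 days in the greenhouse. Compounds formulated in non-phytotoxic solvent plus surfactant and applied to soil after planting (pre) or onto foliage of 1- to 4-leaf plants (post).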

[2] = tested on: barnyardgrass (Echinochloa crus-galli); assay: Test B postemergence; conditions: 13 to 15 days
Method in brief: as §1

[3] = tested on: blackgrass (Alopecurus myosuroides); assay: Test B postemergence; conditions: 13 to 15 days
Method in brief: as §1

[4] = tested on: cocklebur (Xanthium strumarium); assay: Test B postemergence; conditions: 13 to 15 days
Method in brief: as §1

corn (Zea mays) [5] = assay: Test B postemergence; conditions: 13 to 15 days
Method in brief: as §1

[6] = tested on: crabgrass (Digitaria sanguinalis); assay: Test B postemergence; conditions: 13 to 15 days
Method in brief: as §1

[7] = tested on: giant foxtail (Setaria faberii); assay: Test B postemergence; conditions: 13 to 15 days
Method in brief: as §1

[8] = tested on: lambsquarters (Chenopodium album); assay: Test B postemergence; conditions: 13 to 15 days
Method in brief: as §1

[9] = tested on: morning glory (Ipomoea hederacea); assay: Test B postemergence; conditions: 13 to 15 days
Method in brief: as §1

[10] = tested on: pigweed (Amaranthus retroflexus); assay: Test B postemergence; conditions: 13 to 15 days
Method in brief: as §1

[11] = tested on: velvetleaf (Abutilon theophrasti); assay: Test B postemergence; conditions: 13 to 15 days
Method in brief: as §1

[12] = tested on: wheat (Triticum aestivum); assay: Test B postemergence; conditions: 13 to 15 days
Method in brief: as §1

wild oat (Avena fatua) = assay: Test B postemergence; conditions: 13 to 15 days
Method in brief: as §1

[13] = tested on: Surinam grass (Brachiaria decumbens); assay: Test B preemergence; conditions: scale 0 to 100, 0 no effect, 100 complete control
Method in brief: as §1

[14] = tested on: barnyardgrass (Echinochloa crus-galli); assay: Test B preemergence; conditions: scale 0 to 100, 0 no effect, 100 complete control
Method in brief: as §1

[15] = tested on: cocklebur (Xanthium strumarium); assay: Test B preemergence; conditions: scale 0 to 100, 0 no effect, 100 complete control
Method in brief: as §1

corn (Zea mays) [16] = assay: Test B preemergence; conditions: scale 0 to 100, 0 no effect, 100 complete control
Method in brief: as §1

[17] = tested on: crabgrass (Digitaria sanguinalis); assay: Test B preemergence; conditions: scale 0 to 100, 0 no effect, 100 complete control
Method in brief: as §1

[18] = tested on: giant foxtail (Setaria faberii); assay: Test B preemergence; conditions: scale 0 to 100, 0 no effect, 100 complete control
Method in brief: as §1

[19] = tested on: lambsquarters (Chenopodium album); assay: Test B preemergence; conditions: scale 0 to 100, 0 no effect, 100 complete control
Method in brief: as §1

[20] = tested on: morning glory (Ipomoea hederacea); assay: Test B preemergence; conditions: scale 0 to 100, 0 no effect, 100 complete control
Method in brief: as §1

[21] = tested on: pigweed (Amaranthus retroflexus); assay: Test B preemergence; conditions: scale 0 to 100, 0 no effect, 100 complete control
Method in brief: as §1

rice (Oryza saliva) = assay: Test B preemergence; conditions: scale 0 to 100, 0 no effect, 100 complete control
Method in brief: as §1

[22] = tested on: velvetleaf (Abutilon theophrasti); assay: Test B preemergence; conditions: scale 0 to 100, 0 no effect, 100 complete control
Method in brief: as §1

[23] = tested on: smallflower flatsedge (Cyperus difformis); assay: Test C flooded paddy test; conditions: for Flatsedge plant response rating: Flooded Paddy, scale 0 to 100, 0 no effect, 100 complete control; for Plant response rating, Flatsedge / Plant response rating (scale 0 to 100), Flatsedge: flooded paddy test; for Plant response rating, Flatsedge: scale 0 to 100 (0 no effect, 100 complete control)
Method in brief: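 Visual ratings (0 = no effect, 100 = complete control) were made 12–14 days after treatment, relative to greenhouse controls. Plants in the flooded paddy test were rice, smallflower flatsedge, duck salad and barnyardgrass, treated at the 2-leaf stage.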

[24] = Rate 125 g/ha, scale 0 (no effect) to 100 (complete control)
[25] = Rate 500 g/ha, scale 0 to 100, 0 is no effect, 100 is complete control

O=C1C(n2ccc(C3CC3)n2)SCN1c1cccc(C(F)(F)F)c1 (stereo not drawn) [Compound 26]
Plant response rating, Surinam grass [1, 24]: 20 | Plant response rating, Surinam grass [1, 25]: 20 | Plant response rating, Barnyardgrass [2, 24]: 0 | Plant response rating, Barnyardgrass [2, 25]: 80 | Plant response rating, Blackgrass [3, 24]: 0 | Plant response rating, Blackgrass [3, 25]: 0 | Plant response rating, Cocklebur [4, 24]: 50 | Plant response rating, Cocklebur [4, 25]: 60 | Plant response rating, Corn (corn (Zea mays) [5]; [24]): 0 | Plant response rating, Corn (corn (Zea mays) [5]; [25]): 70 | Plant response rating, Crabgrass [6, 24]: 0 | Plant response rating, Crabgrass [6, 25]: 20 | Plant response rating, Foxtail, Giant [7, 24]: 20 | Plant response rating, Foxtail, Giant [7, 25]: 50 | Plant response rating, Lambsquarters [8, 24]: 80 | Plant response rating, Lambsquarters [8, 25]: 80 | Plant response rating, Morningglory [9, 24]: 0 | Plant response rating, Morningglory [9, 25]: 10 | Plant response rating, Pigweed [10, 24]: 0 | Plant response rating, Pigweed [10, 25]: 60 | Plant response rating, Velvetleaf [11, 24]: 20 | Plant response rating, Velvetleaf [11, 25]: 20 | Plant response rating, Wheat [12, 24]: 0 | Plant response rating, Wheat [12, 25]: 0 | Plant response rating, Wild Oat (wild oat (Avena fatua); [24]): 0 | Plant response rating, Wild Oat (wild oat (Avena fatua); [25]): 0 | Plant response rating, Surinam grass ([13]; Preemergence, Rate 500 g/ha): 70 | Plant response rating, Surinam grass ([13]; preemergence, Rate 125 g/ha): 40 | Plant response rating, Barnyardgrass ([14]; Preemergence, Rate 500 g/ha): 100 | Plant response rating, Barnyardgrass ([14]; preemergence, Rate 125 g/ha): 100 | Plant response rating, Cocklebur ([15]; Preemergence, Rate 500 g/ha): 0 | Plant response rating, Cocklebur ([15]; preemergence, Rate 125 g/ha): 0 | Plant response rating, Corn (corn (Zea mays) [16]; Preemergence, Rate 500 g/ha): 70 | Plant response rating, Corn (corn (Zea mays) [16]; preemergence, Rate 125 g/ha): 10 | Plant response rating, Crabgrass ([17]; Preemergence, Rate 500 g/ha): 100 | Plant response rating, Crabgrass ([17]; preemergence, Rate 125 g/ha): 100 | Plant response rating, Foxtail, Giant ([18]; Preemergence, Rate 500 g/ha): 100 | Plant response rating, Foxtail, Giant ([18]; preemergence, Rate 125 g/ha): 100 | Plant response rating, Lambsquarters ([19]; Preemergence, Rate 500 g/ha): 100 | Plant response rating, Lambsquarters ([19]; preemergence, Rate 125 g/ha): 100 | Plant response rating, Morningglory ([20]; Preemergence, Rate 500 g/ha): 0 | Plant response rating, Morningglory ([20]; preemergence, Rate 125 g/ha): 0 | Plant response rating, Pigweed ([21]; Preemergence, Rate 500 g/ha): 100 | Plant response rating, Pigweed ([21]; preemergence, Rate 125 g/ha): 100 | Plant response rating, Rice (rice (Oryza saliva); Preemergence, Rate 500 g/ha): 80 | Plant response rating, Rice (rice (Oryza saliva); preemergence, Rate 125 g/ha): 40 | Plant response rating, Velvetleaf ([22]; Preemergence, Rate 500 g/ha): 0 | Plant response rating, Velvetleaf ([22]; preemergence, Rate 125 g/ha): 0 | Flatsedge plant response rating ([23]; Rate 250 g/ha): 95 | Flatsedge plant response rating ([23]; Rate 500 g/ha): 95 | Plant response rating, Flatsedge ([23]; Rate 62 g/ha): 90 | Plant response rating, Flatsedge ([23]; Rate 125 g/ha): 90

COc1cc(N2CCC(n3ccc(C(C)(C)C)n3)C2=O)ccc1C (stereo not drawn) [Compound 42]
Plant response rating, Surinam grass [1, 24]: 0 | Plant response rating, Surinam grass [1, 25]: 0 | Plant response rating, Barnyardgrass [2, 24]: 60 | Plant response rating, Barnyardgrass [2, 25]: 100 | Plant response rating, Blackgrass [3, 24]: 0 | Plant response rating, Blackgrass [3, 25]: 50 | Plant response rating, Cocklebur [4, 24]: 40 | Plant response rating, Cocklebur [4, 25]: 60 | Plant response rating, Corn (corn (Zea mays) [5]; [24]): 0 | Plant response rating, Corn (corn (Zea mays) [5]; [25]): 40 | Plant response rating, Crabgrass [6, 24]: 50 | Plant response rating, Crabgrass [6, 25]: 80 | Plant response rating, Foxtail, Giant [7, 24]: 50 | Plant response rating, Foxtail, Giant [7, 25]: 70 | Plant response rating, Lambsquarters [8, 24]: 70 | Plant response rating, Lambsquarters [8, 25]: 100 | Plant response rating, Morningglory [9, 24]: 60 | Plant response rating, Morningglory [9, 25]: 100 | Plant response rating, Pigweed [10, 24]: 80 | Plant response rating, Pigweed [10, 25]: 100 | Plant response rating, Velvetleaf [11, 24]: 50 | Plant response rating, Velvetleaf [11, 25]: 80 | Plant response rating, Wheat [12, 24]: 0 | Plant response rating, Wheat [12, 25]: 0 | Plant response rating, Wild Oat (wild oat (Avena fatua); [24]): 0 | Plant response rating, Wild Oat (wild oat (Avena fatua); [25]): 40 | Plant response rating, Surinam grass ([13]; Preemergence, Rate 500 g/ha): 100 | Plant response rating, Surinam grass ([13]; preemergence, Rate 125 g/ha): 90 | Plant response rating, Barnyardgrass ([14]; Preemergence, Rate 500 g/ha): 100 | Plant response rating, Barnyardgrass ([14]; preemergence, Rate 125 g/ha): 100 | Plant response rating, Cocklebur ([15]; Preemergence, Rate 500 g/ha): 70 | Plant response rating, Cocklebur ([15]; preemergence, Rate 125 g/ha): 0 | Plant response rating, Corn (corn (Zea mays) [16]; Preemergence, Rate 500 g/ha): 20 | Plant response rating, Corn (corn (Zea mays) [16]; preemergence, Rate 125 g/ha): 20 | Plant response rating, Crabgrass ([17]; Preemergence, Rate 500 g/ha): 100 | Plant response rating, Crabgrass ([17]; preemergence, Rate 125 g/ha): 100 | Plant response rating, Foxtail, Giant ([18]; Preemergence, Rate 500 g/ha): 100 | Plant response rating, Foxtail, Giant ([18]; preemergence, Rate 125 g/ha): 100 | Plant response rating, Lambsquarters ([19]; Preemergence, Rate 500 g/ha): 100 | Plant response rating, Lambsquarters ([19]; preemergence, Rate 125 g/ha): 100 | Plant response rating, Morningglory ([20]; Preemergence, Rate 500 g/ha): 100 | Plant response rating, Pigweed ([21]; Preemergence, Rate 500 g/ha): 100 | Plant response rating, Rice (rice (Oryza saliva); Preemergence, Rate 500 g/ha): 100 | Plant response rating, Velvetleaf ([22]; Preemergence, Rate 500 g/ha): 90 | Flatsedge plant response rating ([23]; Rate 250 g/ha): 100 | Flatsedge plant response rating ([23]; Rate 500 g/ha): 100 | Plant response rating, Flatsedge ([23]; Rate 62 g/ha): 100 | Plant response rating, Flatsedge ([23]; Rate 125 g/ha): 100 | Plant response rating (scale 0 to 100), Flatsedge ([23]; Rate 16 g/ha, visually evaluated after 12 to 14 days, 0 = no effect, 100 = complete control): 100 | Plant response rating (scale 0 to 100), Flatsedge ([23]; under head Rate 16 g/ha, (own rate not given), after 12 to 14 days): 100

Source: patent publication US7138361B2, “Herbicidal heterocycles” (E. I. du Pont de Nemours and Company, priority 2000, dated 2006)
